Test results taken from patent publication US6461997B1, “Triazole sulfones having herbicidal activity” (Monsanto Technology LLC, priority 1999, dated 2002).

Tests used:
PANDI (fall panicum) = assay: Pre-plant incorporated (PPI) herbicidal activity, warm season; format: in vivo, Panicum dichotomiflorum; conditions: pre-plant incorporated; lowest tested rate with 80% or greater inhibition; about 14 days
Method in brief: (§1)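 Efficacy is percent inhibition against untreated pots, rated roughly 14 days after treatment. Compound dissolved or suspended in organic solvent was sprayed onto the cover soil, mixed in, and layered over surface-sown seeds, then watered with 0.64 cm overhead. Day/night temperatures were 18/13 °C for cool-season and 30/21 °C for warm-season species.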

SETFA (giant foxtail) = assay: Pre-emergence herbicidal activity, warm season; format: in vivo, Setaria faberi; conditions: GR80 = lowest tested rate (300, 100, 30, 10 g/ha) with 80% or greater inhibition; approx. 14 days after treating; 30/21° C.
Method in brief: (§2)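 Activity is expressed as the rate giving 80% inhibition, with 300, 100, 30 and 10 g/ha typically tested. An asterisk marks activity short of 80% at the top rate. Warm-season grasses were held at 30/21 °C; cool-season blackgrass and wild buckwheat at 18/13 °C; scoring at about 14 days.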

rice (ORYSA) = assay: Selectivity test, PPI, warm season crop; format: in vivo, Oryza sativa; conditions: PPI application
Method in brief: (§3)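 Percent inhibition relative to untreated controls, assessed roughly 14 days post-planting. Seeds were covered with a soil layer into which solvent-borne compound had been sprayed and mixed. Plants were then grown at 30/21° C. (warm season) or 18/13° C. (cool season) day/night regimes.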

[1] = system: GALAP (catchweed bedstraw); assay: Pre-emergence herbicidal activity, cool season; format: in vivo, Galium aparine; conditions: lowest tested rate with 80% or greater inhibition; rates 300, 100, 30, 10 g/ha; about 14 days
Method in brief: (§4)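 GR80 values derive from percent inhibition relative to untreated plants, read roughly 14 days after sowing and pre-emergence soil-surface treatment (compound in 50:50 acetone/water; rates typically 10, 30, 100, 300 g/ha). Warm-season weeds grew at 30/21° C day/night, cool-season ones at 18/13° C; an asterisk marks activity without reaching 80% at the highest rate.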

[2] = system: BRAPP (broadleaf signalgrass); assay: Pre-emergence herbicidal activity, warm season; format: in vivo, Brachiaria platyphylla; conditions: GR80 = lowest tested rate (300, 100, 30, 10 g/ha) with 80% or greater inhibition; approx. 14 days after treating; 30/21° C.
Method in brief: as §2

SASKR (russian thistle) = assay: Pre-plant incorporated (PPI) herbicidal activity, cool season; format: in vivo, Salsola kali; conditions: for PPI activity GR80, SASKR: pre-plant incorporated, lowest tested rate with 80% or greater inhibition, about 14 days
Method in brief: as §1

[3] = system: AGSST (creeping bentgrass); assay: as above; format: in vivo, Agrostis stolonifera; conditions: for PPI activity GR80, AGSST: pre-plant incorporated, lowest tested rate with 80% or greater inhibition, about 14 days
Method in brief: as §1

[4] = system: VERPE (creeping speedwell); assay: as above; format: in vivo, Veronica persicaria; conditions: for PPI activity GR80, VERPE: pre-plant incorporated, lowest tested rate with 80% or greater inhibition, about 14 days
Method in brief: as §1

oilseed rape (BRSNS) = assay: Selectivity test, PPI, cool season crop; format: in vivo, Brassica napus; conditions: PPI application
Method in brief: as §3

POROL (common purslane) = assay: Pre-emergence herbicidal activity, warm season; format: in vivo, Portulaca oleracea; conditions: GR80 = lowest tested rate (300, 100, 30, 10 g/ha) with 80% or greater inhibition; approx. 14 days after treating; 30/21° C.
Method in brief: as §4

SINAR (wild mustard) = assay: Pre-plant incorporated (PPI) herbicidal activity, cool season; format: in vivo, Sinapis arvensis; conditions: for PPI activity GR80, SINAR: pre-plant incorporated, lowest tested rate with 80% or greater inhibition, about 14 days
Method in brief: as §1

[5] = weed, PPI application, 100 g/ha
[6] = weed, PPI application, 300 g/ha
[7] = weed, PPI application, 900 g/ha

C=CCC(F)(F)S(=O)(=O)c1ncn(C(=O)N(CC)CC)n1 [Example 17, 1-(N,N-diethylcarbamoyl)-3-[(1,1-difluoro-3-butenyl)sulfonyl]-1,2,4-triazole]
PPI activity GR80, PANDI (PANDI (fall panicum)): 300 g/ha | Pre-emergence activity (GR80) SETFA (SETFA (giant foxtail)): 100 g/ha | inhibition at 10 g/ha (rice (ORYSA); Oryza sativa, 10 g/ha, read-out: Percent inhibition ORYSA): 0% | inhibition at 30 g/ha (rice (ORYSA); Oryza sativa, 30 g/ha, read-out: Percent inhibition ORYSA): 0% | inhibition at 100 g/ha (rice (ORYSA); Oryza sativa, 100 g/ha, read-out: Percent inhibition ORYSA): 0% | inhibition at 300 g/ha (rice (ORYSA); Oryza sativa, 300 g/ha, read-out: Percent inhibition ORYSA): 30% | inhibition at 900 g/ha (rice (ORYSA); Oryza sativa, 900 g/ha, read-out: Percent inhibition ORYSA): 60% | Pre-emergence activity GR80, GALAP [1]: 100 g/ha | Pre-emergence activity (GR80) BRAPP [2]: 300 g/ha | inhibition at 10 g/ha (SASKR (russian thistle); Salsola kali, weed, PPI application, 10 g/ha, read-out: Percent inhibition SASKR): 0% | inhibition at 30 g/ha (SASKR (russian thistle); Salsola kali, weed, PPI application, 30 g/ha, read-out: Percent inhibition SASKR): 0% | inhibition at 100 g/ha (SASKR (russian thistle); Salsola kali, weed, PPI application, 100 g/ha, read-out: Percent inhibition SASKR): 0% | inhibition at 300 g/ha (SASKR (russian thistle); Salsola kali, weed, PPI application, 300 g/ha, read-out: Percent inhibition SASKR): 60% | inhibition at 900 g/ha (SASKR (russian thistle); Salsola kali, weed, PPI application, 900 g/ha, read-out: Percent inhibition SASKR): 100% | PPI activity GR80, SASKR (SASKR (russian thistle)): 30 g/ha | inhibition at 10 g/ha ([3]; Agrostis stolonifera, weed, PPI application, 10 g/ha, read-out: Percent inhibition AGSST): 70% | inhibition at 30 g/ha ([3]; Agrostis stolonifera, weed, PPI application, 30 g/ha, read-out: Percent inhibition AGSST): 95% | inhibition at 100 g/ha ([3]; Agrostis stolonifera, weed, PPI application, 100 g/ha, read-out: Percent inhibition AGSST): 95% | inhibition at 300 g/ha ([3]; Agrostis stolonifera, weed, PPI application, 300 g/ha, read-out: Percent inhibition AGSST): 100% | inhibition at 900 g/ha ([3]; Agrostis stolonifera, weed, PPI application, 900 g/ha, read-out: Percent inhibition AGSST): 100% | PPI activity GR80, AGSST [3]: 10 g/ha | PPI activity GR80, VERPE [4]: 10 g/ha | inhibition at 10 g/ha ([4]; weed, PPI application, 10 g/ha, read-out: Percent inhibition VERPE): 0% | inhibition at 30 g/ha ([4]; weed, PPI application, 30 g/ha, read-out: Percent inhibition VERPE): 0% | inhibition at 100 g/ha ([4]; weed, PPI application, 100 g/ha, read-out: Percent inhibition VERPE): 0% | inhibition at 300 g/ha ([4]; weed, PPI application, 300 g/ha, read-out: Percent inhibition VERPE): 90% | inhibition at 900 g/ha ([4]; weed, PPI application, 900 g/ha, read-out: Percent inhibition VERPE): 100% | inhibition at 10 g/ha (oilseed rape (BRSNS); Brassica napus, 10 g/ha, read-out: Percent inhibition BRSNS): 0% | inhibition at 30 g/ha (oilseed rape (BRSNS); Brassica napus, 30 g/ha, read-out: Percent inhibition BRSNS): 0% | inhibition at 100 g/ha (oilseed rape (BRSNS); Brassica napus, 100 g/ha, read-out: Percent inhibition BRSNS): 0% | inhibition at 300 g/ha (oilseed rape (BRSNS); Brassica napus, 300 g/ha, read-out: Percent inhibition BRSNS): 60% | inhibition at 900 g/ha (oilseed rape (BRSNS); Brassica napus, 900 g/ha, read-out: Percent inhibition BRSNS): 95% | Pre-emergence activity (GR80) POROL (POROL (common purslane)): 300 g/ha | inhibition at 10 g/ha (SINAR (wild mustard); Brassica, weed, PPI application, 10 g/ha, read-out: Percent inhibition SINAR): 70% | inhibition at 30 g/ha (SINAR (wild mustard); Brassica, weed, PPI application, 30 g/ha, read-out: Percent inhibition SINAR): 70% | inhibition at 100 g/ha (SINAR (wild mustard); Brassica, weed, PPI application, 100 g/ha, read-out: Percent inhibition SINAR): 90% | inhibition at 300 g/ha (SINAR (wild mustard); Brassica, weed, PPI application, 300 g/ha, read-out: Percent inhibition SINAR): 100% | inhibition at 900 g/ha (SINAR (wild mustard); Brassica, weed, PPI application, 900 g/ha, read-out: Percent inhibition SINAR): 100% | PPI activity GR80, SINAR (SINAR (wild mustard)): 30 g/ha

C=C(CC(F)(F)S(=O)(=O)c1ncn(C(=O)N(CC)CC)n1)C[Si](C)(C)C [Example 20]
PPI activity GR80, PANDI (PANDI (fall panicum)): 100 g/ha | Pre-emergence activity (GR80) SETFA (SETFA (giant foxtail)): 100 g/ha | Percent inhibition ORYSA (rice (ORYSA); 10 g/ha): 0% | Percent inhibition ORYSA (rice (ORYSA); 30 g/ha): 0% | Percent inhibition ORYSA (rice (ORYSA); 100 g/ha): 0% | Percent inhibition ORYSA (rice (ORYSA); 300 g/ha): 10% | Percent inhibition ORYSA (rice (ORYSA); 900 g/ha): 40% | Pre-emergence activity GR80, GALAP [1]: [empty] | Pre-emergence activity (GR80) BRAPP [2]: 300 g/ha | PPI activity GR80, SASKR (SASKR (russian thistle)): 300 g/ha | Percent inhibition SASKR (SASKR (russian thistle); weed, PPI application, 10 g/ha): 0% | Percent inhibition SASKR (SASKR (russian thistle); weed, PPI application, 30 g/ha): 0% | Percent inhibition SASKR (SASKR (russian thistle); [5]): 40% | Percent inhibition SASKR (SASKR (russian thistle); [6]): 0% | Percent inhibition SASKR (SASKR (russian thistle); [7]): 100% | PPI activity GR80, AGSST [3]: 30 g/ha | Percent inhibition AGSST ([3]; weed, PPI application, 10 g/ha): 0% | Percent inhibition AGSST ([3]; weed, PPI application, 30 g/ha): 10% | Percent inhibition AGSST [3, 5]: 85% | Percent inhibition AGSST [3, 6]: 75% | Percent inhibition AGSST [3, 7]: 100% | PPI activity GR80, VERPE [4]: 30 g/ha | Percent inhibition VERPE ([4]; weed, PPI application, 10 g/ha): 0% | Percent inhibition VERPE ([4]; weed, PPI application, 30 g/ha): 90% | Percent inhibition VERPE [4, 5]: 50% | Percent inhibition VERPE [4, 6]: 90% | Percent inhibition VERPE [4, 7]: 95% | Percent inhibition BRSNS (oilseed rape (BRSNS); 10 g/ha): 0% | Percent inhibition BRSNS (oilseed rape (BRSNS); 30 g/ha): 20% | Percent inhibition BRSNS (oilseed rape (BRSNS); 100 g/ha): 20% | Percent inhibition BRSNS (oilseed rape (BRSNS); 300 g/ha): 60% | Percent inhibition BRSNS (oilseed rape (BRSNS); 900 g/ha): 95% | Pre-emergence activity (GR80) POROL (POROL (common purslane)): 300 g/ha | PPI activity GR80, SINAR (SINAR (wild mustard)): * (activity observed, at least at highest rate, but <80% inhibition) | Percent inhibition SINAR (SINAR (wild mustard); weed, PPI application, 10 g/ha): 30% | Percent inhibition SINAR (SINAR (wild mustard); weed, PPI application, 30 g/ha): 80% | Percent inhibition SINAR (SINAR (wild mustard); [5]): 80% | Percent inhibition SINAR (SINAR (wild mustard); [6]): 60% | Percent inhibition SINAR (SINAR (wild mustard); [7]): 70%
